The target of data set [1] is T1, ATP-dependent translocase ABCB1 (Homo sapiens, UniProt P08183). Nature of the data set: TP_TRANSPORTER: drug resistance (vinblastine) in K562-DR cells. It counts as functional, cell-based.
The target in data set [2] is T1, ATP-dependent translocase ABCB1. The experiment in a line: TP_TRANSPORTER: drug resistance (vinblastine) in HepG2-DR cells. It counts as functional, cell-based.

T1 sequence (P08183 whole entry): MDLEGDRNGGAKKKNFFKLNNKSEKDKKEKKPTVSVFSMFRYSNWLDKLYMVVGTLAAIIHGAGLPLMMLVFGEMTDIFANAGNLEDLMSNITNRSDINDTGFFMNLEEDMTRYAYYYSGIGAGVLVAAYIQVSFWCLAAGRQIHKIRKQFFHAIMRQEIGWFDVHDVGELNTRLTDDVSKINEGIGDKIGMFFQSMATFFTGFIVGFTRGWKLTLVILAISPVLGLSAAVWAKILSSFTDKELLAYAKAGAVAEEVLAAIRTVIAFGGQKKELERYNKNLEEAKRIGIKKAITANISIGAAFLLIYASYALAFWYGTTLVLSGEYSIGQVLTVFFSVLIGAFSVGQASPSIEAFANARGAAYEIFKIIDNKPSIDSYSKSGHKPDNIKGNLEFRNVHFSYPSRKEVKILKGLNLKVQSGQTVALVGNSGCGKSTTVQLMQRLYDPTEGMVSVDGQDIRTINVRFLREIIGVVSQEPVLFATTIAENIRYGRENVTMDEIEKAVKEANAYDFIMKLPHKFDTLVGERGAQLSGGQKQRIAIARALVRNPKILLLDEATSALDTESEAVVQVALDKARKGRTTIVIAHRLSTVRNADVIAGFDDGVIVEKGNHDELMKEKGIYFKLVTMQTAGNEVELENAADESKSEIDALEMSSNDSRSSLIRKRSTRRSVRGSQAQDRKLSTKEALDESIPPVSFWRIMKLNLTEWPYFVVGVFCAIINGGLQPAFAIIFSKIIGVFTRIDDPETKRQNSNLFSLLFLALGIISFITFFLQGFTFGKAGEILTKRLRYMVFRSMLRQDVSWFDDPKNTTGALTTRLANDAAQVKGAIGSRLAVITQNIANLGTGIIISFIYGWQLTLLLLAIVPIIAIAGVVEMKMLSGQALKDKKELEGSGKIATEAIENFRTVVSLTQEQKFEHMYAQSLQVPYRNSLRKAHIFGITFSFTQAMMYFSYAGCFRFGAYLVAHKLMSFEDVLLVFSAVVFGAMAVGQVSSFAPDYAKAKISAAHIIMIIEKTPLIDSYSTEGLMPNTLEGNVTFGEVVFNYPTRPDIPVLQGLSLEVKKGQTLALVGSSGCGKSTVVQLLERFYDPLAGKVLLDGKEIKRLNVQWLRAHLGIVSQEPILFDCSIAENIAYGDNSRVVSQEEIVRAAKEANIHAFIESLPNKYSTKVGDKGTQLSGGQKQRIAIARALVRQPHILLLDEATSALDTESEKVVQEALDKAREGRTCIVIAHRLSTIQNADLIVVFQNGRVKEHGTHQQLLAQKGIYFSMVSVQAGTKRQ

Take `C[C@H](C[C@](O)(CC(=O)O)C1OC1(C)C)C1=C2C[C@H](O)[C@@H]3[C@H](CCC4C(C)(C)C(=O)CC[C@@]43C)[C@@]2(C)CC1` (some centres not stated): the Activity entry in data set [1] and in data set [2] was “inhibitor [+]” each time.

These data come from ChEMBL document CHEMBL2074076, “Reversal of P-glycoprotein-mediated multidrug resistance by Alisol B 23-acetate” (Biochem Pharmacol, 2004).
